From patent US5011824A, “Rectal motilin preparation” (Kyowa Hakko Kogyo Co., Ltd., priority 1988, dated 1991) come the findings set out here.

The nature of the data set: Intravenous safety of motilin in rats. The class given is in vivo. The note with it: 10 mg/kg intravenously. An excerpt: The preparation usually contains a therapeutically effective quantity, suitably about 0.05 to about 5% by weight, preferably about 0.1 to about 2% by weight, of motilin.

In the case of motilin, the mortality entry was “did not die”.
